Results on 1 molecule are retold here after US20260248860A1, “LIVER DISEASE REGULATORY FORMULATION AND USE THEREOF” (SHANGHAI CELLIVER BIOTECHNOLOGY CO., LTD., priority 2021, published 2026).

This test concerns ConA-stimulated mouse spleen cells. Briefly: ConA-stimulated mouse spleen cell proliferation (CFSE, flow cytometry). Format: cell-based. Conditions: final concentration 10 nM, 72 hours, read-out: inhibition rate on the proliferation of spleen cells. On the procedure: A method for preparing a suspension of mouse spleen cells added with a stimulator was: 1-week-old C57BL/6 mice were sacrificed by neck dislocation, then the spleen was taken, ground with a 200-mesh sieve, and then rinsed with a lymphatic separation fluid, and the separation solution containing lymphocytes was collected, resuspended by using a RPMI-1640 complete medium containing 10% fetal bovine serum and centrifuged under a centrifugal force of 800 g at low temperature for 30 minutes; and after completion of centrifugation, the lymphocyte layer was pipetted, then resuspended with a RPMI-1640 complete medium containing 10% fetal bovine serum, and then centrifuged under a centrifugal force of 250 g for 10 minutes at low temperature. The obtained lymphocyte layer was resuspended with the RPMI-1640 complete medium containing 10% fetal bovine serum again, and added with a concanavalin A(ConA) suspension resuspended with the RPMI-1640 complete medium containing 10% fetal bovine serum as a stimulator. […]
Background: Flow cytometry measures light scatter and fluorescence of single cells or particles in a stream.

Molecules are shown by their SMILES.

On to `C=CC[C@@H]1/C=C(\C)C[C@H](C)C[C@H](OC)[C@H]2O[C@@](O)(C(=O)C(=O)N3CCCC[C@H]3C(=O)O[C@H](/C(C)=C/[C@@H]3CC[C@@H](O)[C@H](OC)C3)[C@H](C)[C@@H](O)CC1=O)[C@H](C)C[C@@H]2OC` [FK506, tacrolimus], for which the inhibition at 0.01 µM was 82%.
